Columns and labels:
P. aeruginosa = test: Bacterial proliferation test, 96 well microplate (OD 450 nm, 24 h); type: cell-based; settings: positive control = 100% proliferation
Description: (§1) The microbial strains used for the tests are the following bacteria: • P. aeruginosa • S. aureus The tests were conducted on microplates to evaluate the MIC (Minimum Inhibitory Concentration). […] Each well is inoculated with 50 μL of bacterial suspension to be tested in a Muller-Hinton (MH) broth+150 μL of diluted test product solution. […] Each specimen is tested in triplicate. The optical densities (OD) are read a first time at time 0 (T0) at 450 nm. The plates are then incubated for 24 h at 37° C. with agitation. At the end of incubation, the OD is measured again at 450 nm (T24). The proliferation percentage is calculated as follows: Proliferation=(DOT24−DOT0)/(DOT24Control+−DOT0Control+)

S. aureus = test: as above; type: cell-based; settings: positive control = 100% proliferation
Description: as §1

| Molecule | proliferation percentage of P aeruginosa (P. aeruginosa; formula at 1.5% (v/v)) [%] | proliferation percentage of P aeruginosa (P. aeruginosa; formula at 3% (v/v)) [%] | proliferation percentage of P aeruginosa (P. aeruginosa; formula at 6% (v/v)) [%] | proliferation percentage of P aeruginosa (P. aeruginosa; formula at 9% (v/v)) [%] | proliferation percentage of S. aureus (S. aureus; formula at 1.5% (v/v)) [%] | proliferation percentage of S. aureus (S. aureus; formula at 3% (v/v)) [%] | proliferation percentage of S. aureus (S. aureus; formula at 6% (v/v)) [%] | proliferation percentage of S. aureus (S. aureus; formula at 9% (v/v)) [%] |
| --- | --- | --- | --- | --- | --- | --- | --- | --- |
| O=C[C@H](O)[C@@H](O)[C@H](O)[C@H](O)CO [Formula 9, glucose] | 100 | 206 | 206 | 113 | 96 | 86 | 83 | 72 |
| glucose oxidase [Formula 8] | 96 | 96 | 91 | 86 | 81 | 72 | 54 | 46 |

— US20170072024A1, “ANTIMICROBIAL COMPOSITION COMPRISING A CARBOHYDRATE, GLUCOSE OXIDASE AND ZINC OXIDE” (MELIPHARM, priority 2014, published 2017)
